For the assay, the target named is T1, abc isoform of human TMEM16A channel expressed in CHO cells (Homo sapiens, UniProt Q5XXA6, DEL476-501).
T1 construct: expressed in transfected cells; host or cells: CHO cells, doxycycline-inducible expression under Blasticidin/Zeocin selection
T1 sequence (Q5XXA6 with tags, fused parts or gaps isoform Q5XXA6-5 DEL539-564): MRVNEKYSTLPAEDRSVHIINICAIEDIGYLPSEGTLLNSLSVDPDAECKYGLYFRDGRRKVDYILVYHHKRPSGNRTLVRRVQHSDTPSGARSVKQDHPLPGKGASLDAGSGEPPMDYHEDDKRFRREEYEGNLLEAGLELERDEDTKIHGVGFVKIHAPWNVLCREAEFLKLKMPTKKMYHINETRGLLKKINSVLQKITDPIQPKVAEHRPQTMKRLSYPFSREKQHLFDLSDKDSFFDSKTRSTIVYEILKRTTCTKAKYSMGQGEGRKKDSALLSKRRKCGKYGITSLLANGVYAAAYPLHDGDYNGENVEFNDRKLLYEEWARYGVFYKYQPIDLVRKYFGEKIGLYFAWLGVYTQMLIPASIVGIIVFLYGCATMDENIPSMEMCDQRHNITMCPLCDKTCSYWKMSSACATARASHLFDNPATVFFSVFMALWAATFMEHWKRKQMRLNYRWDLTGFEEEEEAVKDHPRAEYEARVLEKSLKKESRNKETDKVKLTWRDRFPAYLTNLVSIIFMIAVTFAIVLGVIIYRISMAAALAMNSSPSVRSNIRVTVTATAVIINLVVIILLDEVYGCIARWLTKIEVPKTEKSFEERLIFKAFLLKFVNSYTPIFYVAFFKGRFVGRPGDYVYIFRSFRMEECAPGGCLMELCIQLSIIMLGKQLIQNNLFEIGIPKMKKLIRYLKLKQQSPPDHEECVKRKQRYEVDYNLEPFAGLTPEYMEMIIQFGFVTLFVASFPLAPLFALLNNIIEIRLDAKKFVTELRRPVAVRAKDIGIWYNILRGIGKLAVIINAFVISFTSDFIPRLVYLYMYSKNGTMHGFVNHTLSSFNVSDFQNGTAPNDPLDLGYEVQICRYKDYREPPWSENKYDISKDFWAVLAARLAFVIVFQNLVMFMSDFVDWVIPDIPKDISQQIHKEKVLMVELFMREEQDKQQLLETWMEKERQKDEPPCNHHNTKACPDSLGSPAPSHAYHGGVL
Put plainly: Automated patch clamping (QPatch) assay to measure TMEM16A activity in whole-cell. The format is cell-based. Particulars: for EC50: CHO cells expressing human TMEM16A (abc), whole-cell automated patch clamp, Hill fit, read-out: TMEM16A QPATCH assay EC50 V3 EC50; for Emax: CHO, read-out: TMEM16A QPATCH assay EC50 V3 Assay Window (% TMEM16A max activation); for Emax / TMEM16A QPATCH assay EC50 V3 Assay Window (% TMEM16A max activation): maximum current at highest dose relative to reference potentiator at maximal concentration (upper limit) and vehicle (lower limit). A digest of the protocol:
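CHO cells with doxycycline-induced (1 μg/mL, 18-24 h) human TMEM16A abc isoform; QPatch whole-cell recording, hold −70 mV, step +70 mV 1500 ms, then −90 to +70 mV ramp. Compounds in 0.3% DMSO; EC50 by Hill fit; % max activation relative to vehicle baseline and reference potentiator maximum.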

Molecules are shown by their SMILES. Where a name gives a salt, the structure may show the parent alone.

With `CC(C)[C@H](NC(=O)c1cnc(-c2cccc(-c3nnc(C(=O)N[C@@H](C)C4CC4)[nH]3)c2)o1)C(=O)OC(C)(C)C` [Example 12.4, (S)-Tert-Butyl 2-(2-(3-(5-(((S)-1-Cyclopropylethyl)Carbamoyl)-4H-1,2,4-Triazol-3-Yl)Phenyl)Oxazole-5-Carboxamido)-3-Methylbutanoate], the EC50 – broadly, the midpoint of the concentration-response curve – was found to be 70 nM and the Emax was found to be 119%.

Consider `CC(C)[C@H](C)NC(=O)c1cnc(-c2cccc(-c3nnc(C(=O)N[C@@H](C)C4CC4)[nH]3)c2)o1` [Example 12.11], for which the 50% effective concentration (EC50) is 150 nM and the Emax was 80%.

For the compound `CCOC(=O)[C@@H](NC(=O)c1cnc(-c2cccc(-c3cc(C(=O)N[C@@H](C(=O)OC)C(C)C)[nH]n3)c2)o1)C(C)C` [Example 2.0, (S)-Ethyl 2-(2-(3-(5-(((R)-1-Methoxy-3-Methyl-1-Oxobutan-2-Yl)Carbamoyl)-1 H-Pyrazol-3-Yl)Phenyl)Oxazole-5-Carboxamido)-3-Methylbutanoate], the EC50 amounted to 140 nM and the Emax was 87%.

With `CCOC(=O)Cn1nc(-c2cccc(-c3ncc(C(=O)NC(CC)CC)o3)c2)nc1C(=O)NC(CC)CC` [Example 15.2, Ethyl 2-(5-(Pentan-3-Ylcarbamoyl)-3-(3-(5-(Pentan-3-Ylcarbamoyl)Oxazol-2-Yl)Phenyl)-1 H-1,2,4-Triazol-1-Yl)Acetate], the EC50 was 80 nM and the Emax was found to be 80%.

For `CCC(CC)NC(=O)c1cnc(-c2cccc(-c3cc(C(=O)N4CCCCC4)n[nH]3)c2)o1` [Example 3.33, N-(Pentan-3-Yl)-2-(3-(3-(Piperidine-1-Carbonyl)-1H-Pyrazol-5-Yl)Phenyl)Oxazole-5-Carboxamide], the EC50 was found to be 840 nM and the Emax stood at 61%.

Consider `CCC(CC)NC(=O)c1cnc(-c2cccc(-c3cc(C(=O)N[C@@H](C)C(C)(C)C)n[nH]3)c2)o1` [Example 3.35, (S)-2-(3-(3-((3,3-Dimethylbutan-2-Yl)Carbamoyl)-1H-Pyrazol-5-Yl)Phenyl)-N-(Pentan-3-Yl)Oxazole-5-Carboxamide Trifluoroacetate], for which the EC50 turned out to be 120 nM and the Emax is 69%.

As to `O=C(NC1CCCC1)c1cnc(-c2cccc(-c3cc(C(=O)NC4CCCC4)n(CCCO)n3)c2)o1` [Example 5.2, N-Cyclopentyl-2-(3-(5-(Cyclopentylcarbamoyl)-1-(3-Hydroxypropyl)-1H-Pyrazol-3-Yl)Phenyl)Oxazole-5-Carboxamide], the EC50 amounted to 840 nM and the Emax is 201%.

As to `CCOC(=O)[C@H](NC(=O)c1cnc(-c2cccc(-c3cc(C(=O)NC(CC)CC)[nH]n3)c2)o1)C(C)C` [Example 1.44, (R)-Ethyl 3-Methyl-2-(2-(3-(5-(Pentan-3-Ylcarbamoyl)-1H-Pyrazol-3-yl)Phenyl)Oxazole-5-Carboxamido)Butanoate], the EC50 was found to be 510 nM and the Emax was 69%.

Turning to `CCC(CC)NC(=O)c1cnc(-c2cccc(-c3cc(C(=O)N[C@@H](C)C(=O)OCc4ccccc4)n[nH]3)c2)o1` [Example 3.64, (S)-Benzyl 2-(5-(3-(5-(Pentan-3-Ylcarbamoyl)Oxazol-2-Yl)Phenyl)-1H-Pyrazole-3-Carboxamido)Propanoate Trifluoroacetate], the half-maximal effective concentration (EC50) came to 150 nM and the Emax is 72%.

Consider `CCC(CC)NC(=O)c1cnc(-c2cccc(-c3cc(C(=O)N[C@H](C)C4CC4)[nH]n3)c2)o1` [Example 3.56, (R)-2-(3-(5-((1-Cyclopropylethyl)Carbamoyl)-1H-Pyrazol-3-Yl)Phenyl)-N-(Pentan-3-Yl)Oxazole-5-Carboxamide], for which the EC50 was determined as 90 nM and the Emax was found to be 78%.

`CCC(CC)NC(=O)c1cnc(-c2cccc(-c3cc(C(=O)NC4CCCC4)n[nH]3)c2)o1` [Example 3.48, 2-(3-(3-(Cyclopentylcarbamoyl)-1 H-Pyrazol-5-Yl)Phenyl)-N-(Pentan-3-yl)Oxazole-5-Carboxamide]: the EC50 was determined as 120 nM and the Emax was found to be 74%.

With `CCC(CC)NC(=O)c1cnc(-c2cccc(-c3cc(C(=O)NC(Cc4ccccc4)C(=O)OC)n[nH]3)c2)o1` (centres unmarked) [Example 3.28, Methyl 2-(5-(3-(5-(Pentan-3-Ylcarbamoyl)Oxazol-2-Yl)Phenyl)-1H-Pyrazole-3-Carboxamido)-3-Phenylpropanoate], the EC50 worked out at 350 nM and the Emax was 84%.

In the case of `CCC(CC)NC(=O)c1cnc(-c2cccc(-c3cc(C(=O)NCC4(C)CC4)n[nH]3)c2)o1` [Example 3.13, 2-(3-(3-(((1-Methylcyclopropyl)Methyl)Carbamoyl)-1H-Pyrazol-5-Yl)Phenyl)-N-(Pentan-3-Yl)Oxazole-5-Carboxamide], the EC50 came out at 70 nM and the Emax is 70%.

`CCC(CC)NC(=O)c1cnc(-c2cccc(-c3cc(C(=O)NCC(C)(C)OC)n[nH]3)c2)o1` [Example 3.12, 2-(3-(3-((2-Methoxy-2-Methylpropyl)Carbamoyl)-1H-Pyrazol-5-Yl)Phenyl)-N-(Pentan-3-Yl)Oxazole-5-Carboxamide]: the EC50 was found to be 270 nM and the Emax amounted to 76%.

`CCC(CC)NC(=O)c1cnc(-c2cccc(-c3cc(C(=O)NC(C)(C)CCc4ccccc4)n[nH]3)c2)o1` [Example 3.39, 2-(3-(3-((2-Methyl-4-Phenylbutan-2-Yl)Carbamoyl)-1H-Pyrazol-5-yl)Phenyl)-N-(Pentan-3-Yl)Oxazole-5-Carboxamide]: the EC50 was 150 nM and the Emax came out at 98%.

In the case of `CCC(CC)NC(=O)c1cnc(-c2cccc(-c3cc(C(=O)NC(C4CC4)C4CCCO4)n[nH]3)c2)o1` (single isomer, unassigned) [Example 3.4 (iii), 2-(3-(3-((Cyclopropyl(Tetrahydrofuran-2-Yl)Methyl)Carbamoyl)-1H-Pyrazol-5-Yl)Phenyl)-N-(Pentan-3-Yl)Oxazole-5-Carboxamide], the EC50 amounted to 550 nM and the “TMEM16A QPATCH assay EC50 V3 Assay Window (% TMEM16A max activation)” value was 73%.

Take `C[C@H](NC(=O)c1cnc(-c2cccc(-c3nc(C(=O)N[C@@H](C)C4CC4)n(CCO)n3)c2)o1)C1CC1` [Example 16.1, N-((S)-1-Cyclopropylethyl)-2-(3-(5-(((S)-1-Cyclopropylethyl)Carbamoyl)-1-(2-Hydroxyethyl)-1H-1,2,4-Triazol-3-Yl)Phenyl)Oxazole-5-Carboxamide]: the EC50 worked out at 460 nM and the Emax was found to be 102%.

In the case of `CCC(CC)NC(=O)c1cc(-c2cccc(-c3ncc(C(=O)NC(CC)C(C)C)o3)c2)[nH]n1` (centres unmarked) [Example 1.11, N-(2-Methylpentan-3-Yl)-2-(3-(3-(Pentan-3-Ylcarbamoyl)-1H-Pyrazol-5-yl)Phenyl)Oxazole-5-Carboxamide], the EC50 came out at 270 nM and the Emax worked out at 165%.

With `CCC(CC)NC(=O)c1cnc(-c2cccc(-c3cc(C(=O)N[C@@H](C)C4CC4)n(CC(C)O)n3)c2)o1` (stereo partly drawn) [Example 9.5, 2-(3-(5-(((S)-1-Cyclopropylethyl)Carbamoyl)-1-(2-Hydroxypropyl)-1H-Pyrazol-3-Yl)Phenyl)-N-(Pentan-3-Yl)Oxazole-5-Carboxamide], the EC50 amounted to 240 nM and the Emax came to 104%.

For `CCC(CC)NC(=O)c1cnc(-c2cccc(-c3cc(C(=O)NC(C4CC4)C4CCCO4)n[nH]3)c2)o1` (single isomer, unassigned) [Example 3.4 (ii), 2-(3-(3-((Cyclopropyl(Tetrahydrofuran-2-Yl)Methyl)Carbamoyl)-1H-Pyrazol-5-Yl)Phenyl)-N-(Pentan-3-Yl)Oxazole-5-Carboxamide], the EC50 stood at 260 nM and the “TMEM16A QPATCH assay EC50 V3 Assay Window (% TMEM16A max activation)” value amounted to 115%.

Consider `CCC(CC)NC(=O)c1cnc(-c2cccc(-c3cc(C(=O)N[C@H](C)C4CC4)n(CCO)n3)c2)o1` [Example 5.1, (R)-2-(3-(5-((1-Cyclopropylethyl)Carbamoyl)-1-(2-Hydroxyethyl)-1H-Pyrazol-3-Yl)Phenyl)-N-(Pentan-3-Yl)Oxazole-5-Carboxamide], for which the EC50 was 320 nM and the Emax was 125%.

Turning to `CCOC(=O)[C@@H](NC(=O)c1cnc(-c2cccc(-c3nc(C(=O)NC(C4CC4)C(F)(F)F)n[nH]3)c2)o1)C(C)C` (some centres unmarked) [Example 12.14], the EC50 came out at 80 nM and the Emax turned out to be 97%.

(Values after US20220306617A1, “SUBSTITUTED 1,3-PHENYL HETEROARYL DERIVATIVES AND THEIR USE IN THE TREATMENT OF DISEASE” (NOVARTIS AG, priority 2019, published 2022).)
